Experimental data from PubChem BioAssay (NCI).
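1) Cells in 96-well plates. 2) Compound, 48 h, 5 concentrations. 3) Linear interpolation between surrounding doses. 4) Unreached endpoint = highest concentration. TGI: total growth inhibition.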

Tests used:
Assay in all cases: NCI anticancer screen, dose series, 48 h
786-0 renal = test system: 786-0 renal
A498 renal = test system: A498 renal
A549 NSCLC = test system: A549 NSCLC
ACHN renal = test system: ACHN renal
BT-549 breast = test system: BT-549 breast
CAKI-1 renal = test system: CAKI-1 renal
CCRF-CEM leukemia = test system: CCRF-CEM leukemia
COLO 205 colon = test system: COLO 205 colon
DU-145 prostate = test system: DU-145 prostate
EKVX NSCLC = test system: EKVX NSCLC
HCC-2998 colon = test system: HCC-2998 colon
HCT-116 colon = test system: HCT-116 colon
HCT-15 colon = test system: HCT-15 colon
HL-60(TB) leukemia = test system: HL-60(TB) leukemia
HOP-62 NSCLC = test system: HOP-62 NSCLC
HOP-92 NSCLC = test system: HOP-92 NSCLC
HS 578T breast = test system: HS 578T breast
HT29 colon = test system: HT29 colon
IGROV1 ovarian = test system: IGROV1 ovarian
K-562 leukemia = test system: K-562 leukemia
KM12 colon = test system: KM12 colon
LOX IMVI melanoma = test system: LOX IMVI melanoma
M14 melanoma = test system: M14 melanoma
MALME-3M melanoma = test system: MALME-3M melanoma
MCF7 breast = test system: MCF7 breast
MDA-MB-231 breast = test system: MDA-MB-231 breast
MDA-MB-435 = test system: MDA-MB-435
MDA-N = test system: MDA-N
MOLT-4 leukemia = test system: MOLT-4 leukemia
NCI-H226 lung = test system: NCI-H226 lung
NCI-H23 lung = test system: NCI-H23 lung
NCI-H460 lung = test system: NCI-H460 lung
NCI-H522 lung = test system: NCI-H522 lung
NCI/ADR-RES ovarian = test system: NCI/ADR-RES ovarian
OVCAR-3 ovarian = test system: OVCAR-3 ovarian
OVCAR-4 ovarian = test system: OVCAR-4 ovarian
OVCAR-5 ovarian = test system: OVCAR-5 ovarian
OVCAR-8 ovarian = test system: OVCAR-8 ovarian
PC-3 prostate = test system: PC-3 prostate
RPMI-8226 leukemia = test system: RPMI-8226 leukemia
RXF 393 renal = test system: RXF 393 renal
SF-268 CNS = test system: SF-268 CNS
SF-295 CNS = test system: SF-295 CNS
SF-539 CNS = test system: SF-539 CNS
SK-MEL-2 melanoma = test system: SK-MEL-2 melanoma
SK-MEL-28 melanoma = test system: SK-MEL-28 melanoma
SK-MEL-5 melanoma = test system: SK-MEL-5 melanoma
SK-OV-3 ovarian = test system: SK-OV-3 ovarian
SN12C renal = test system: SN12C renal
SNB-19 CNS = test system: SNB-19 CNS
SNB-75 CNS = test system: SNB-75 CNS
SR leukemia = test system: SR leukemia
SW-620 colon = test system: SW-620 colon
T-47D breast = test system: T-47D breast
TK-10 renal = test system: TK-10 renal
U251 CNS = test system: U251 CNS
UACC-257 melanoma = test system: UACC-257 melanoma
UACC-62 melanoma = test system: UACC-62 melanoma
UO-31 renal = test system: UO-31 renal

CCCOC(=O)c1cc(O)c(O)c(O)c1
TGI (786-0 renal): > 100 µM
TGI (A498 renal): > 100 µM
TGI (A549 NSCLC): > 100 µM
TGI (ACHN renal): > 100 µM
TGI (BT-549 breast): > 100 µM
TGI (CAKI-1 renal): > 100 µM
TGI (CCRF-CEM leukemia): > 100 µM
TGI (COLO 205 colon): > 100 µM
TGI (DU-145 prostate): > 100 µM
TGI (EKVX NSCLC): > 100 µM
TGI (HCC-2998 colon): > 100 µM
TGI (HCT-116 colon): 45.3 µM
TGI (HCT-15 colon): > 100 µM
TGI (HL-60(TB) leukemia): > 100 µM
TGI (HOP-62 NSCLC): > 100 µM
TGI (HOP-92 NSCLC): > 100 µM
TGI (HS 578T breast): > 100 µM
TGI (HT29 colon): > 100 µM
TGI (IGROV1 ovarian): > 100 µM
TGI (K-562 leukemia): > 100 µM
TGI (KM12 colon): > 100 µM
TGI (LOX IMVI melanoma): 30.8 µM
TGI (M14 melanoma): > 100 µM
TGI (MALME-3M melanoma): > 100 µM
TGI (MCF7 breast): > 100 µM
TGI (MDA-MB-231 breast): > 100 µM
TGI (MDA-MB-435): 81.1 µM
TGI (MDA-N): 76.9 µM
TGI (MOLT-4 leukemia): > 100 µM
TGI (NCI-H226 lung): > 100 µM
TGI (NCI-H23 lung): > 100 µM
TGI (NCI-H460 lung): > 100 µM
TGI (NCI-H522 lung): 77 µM
TGI (NCI/ADR-RES ovarian): > 100 µM
TGI (OVCAR-3 ovarian): 79.8 µM
TGI (OVCAR-4 ovarian): > 100 µM
TGI (OVCAR-5 ovarian): > 100 µM
TGI (OVCAR-8 ovarian): > 100 µM
TGI (PC-3 prostate): > 100 µM
TGI (RPMI-8226 leukemia): > 100 µM
TGI (RXF 393 renal): > 100 µM
TGI (SF-268 CNS): > 100 µM
TGI (SF-295 CNS): > 100 µM
TGI (SF-539 CNS): 70.9 µM
TGI (SK-MEL-2 melanoma): > 100 µM
TGI (SK-MEL-28 melanoma): > 100 µM
TGI (SK-MEL-5 melanoma): > 100 µM
TGI (SK-OV-3 ovarian): > 100 µM
TGI (SN12C renal): > 100 µM
TGI (SNB-19 CNS): > 100 µM
TGI (SNB-75 CNS): > 100 µM
TGI (SR leukemia): > 100 µM
TGI (SW-620 colon): > 100 µM
TGI (T-47D breast): > 100 µM
TGI (TK-10 renal): > 100 µM
TGI (U251 CNS): > 100 µM
TGI (UACC-257 melanoma): > 100 µM
TGI (UACC-62 melanoma): > 100 µM
TGI (UO-31 renal): > 100 µM

CC(C)=CCC[C@@H](C)C1=C(O)C(N[C@H](C)c2ccccc2)=C(C)C(=O)C1=O
TGI (786-0 renal): 20.7 µM
TGI (A498 renal): 32 µM
TGI (A549 NSCLC): 14.7 µM
TGI (ACHN renal): 17.1 µM
TGI (BT-549 breast): 67 µM
TGI (CAKI-1 renal): 46.9 µM
TGI (COLO 205 colon): 20 µM
TGI (DU-145 prostate): 38.9 µM
TGI (EKVX NSCLC): > 100 µM
TGI (HCC-2998 colon): 31.3 µM
TGI (HCT-116 colon): 20.4 µM
TGI (HCT-15 colon): > 63.2 µM
TGI (HL-60(TB) leukemia): 10.8 µM
TGI (HOP-62 NSCLC): 20 µM
TGI (HOP-92 NSCLC): 35.6 µM
TGI (HS 578T breast): 36.7 µM
TGI (HT29 colon): 14.1 µM
TGI (IGROV1 ovarian): > 36.2 µM
TGI (K-562 leukemia): > 60.7 µM
TGI (KM12 colon): > 46 µM
TGI (LOX IMVI melanoma): 22.1 µM
TGI (M14 melanoma): > 31.7 µM
TGI (MALME-3M melanoma): 14.6 µM
TGI (MCF7 breast): 17.9 µM
TGI (MDA-MB-231 breast): 35.6 µM
TGI (MDA-MB-435): > 62.3 µM
TGI (MDA-N): 44.2 µM
TGI (MOLT-4 leukemia): > 30.1 µM
TGI (NCI-H226 lung): 21.1 µM
TGI (NCI-H23 lung): 34.2 µM
TGI (NCI-H460 lung): > 40 µM
TGI (NCI-H522 lung): 8.67 µM
TGI (NCI/ADR-RES ovarian): 4.23 µM
TGI (OVCAR-3 ovarian): > 100 µM
TGI (OVCAR-4 ovarian): > 60.1 µM
TGI (OVCAR-5 ovarian): > 72.1 µM
TGI (OVCAR-8 ovarian): > 24.1 µM
TGI (PC-3 prostate): > 100 µM
TGI (RPMI-8226 leukemia): 22.2 µM
TGI (RXF 393 renal): 25 µM
TGI (SF-268 CNS): > 64.3 µM
TGI (SF-295 CNS): 16.9 µM
TGI (SF-539 CNS): 10.2 µM
TGI (SK-MEL-2 melanoma): 29.3 µM
TGI (SK-MEL-28 melanoma): > 46.7 µM
TGI (SK-MEL-5 melanoma): 13.1 µM
TGI (SK-OV-3 ovarian): 45.4 µM
TGI (SN12C renal): 53.2 µM
TGI (SNB-19 CNS): > 100 µM
TGI (SNB-75 CNS): > 56.4 µM
TGI (SR leukemia): > 100 µM
TGI (SW-620 colon): > 45.2 µM
TGI (T-47D breast): 24.8 µM
TGI (TK-10 renal): 26.3 µM
TGI (U251 CNS): > 100 µM
TGI (UACC-257 melanoma): 53.4 µM
TGI (UACC-62 melanoma): 9.71 µM
TGI (UO-31 renal): 38.9 µM

NC1=Nc2cc(C(F)(F)F)ccc2Sc2nc3ccccc3n21
TGI (786-0 renal): > 28.6 µM
TGI (A498 renal): > 100 µM
TGI (A549 NSCLC): > 100 µM
TGI (ACHN renal): > 100 µM
TGI (BT-549 breast): > 100 µM
TGI (CAKI-1 renal): > 100 µM
TGI (CCRF-CEM leukemia): > 24.8 µM
TGI (COLO 205 colon): > 100 µM
TGI (DU-145 prostate): > 100 µM
TGI (EKVX NSCLC): > 100 µM
TGI (HCC-2998 colon): > 100 µM
TGI (HCT-116 colon): > 100 µM
TGI (HCT-15 colon): > 100 µM
TGI (HL-60(TB) leukemia): > 26 µM
TGI (HOP-62 NSCLC): > 100 µM
TGI (HOP-92 NSCLC): 80.4 µM
TGI (HS 578T breast): > 100 µM
TGI (HT29 colon): > 100 µM
TGI (IGROV1 ovarian): > 100 µM
TGI (K-562 leukemia): > 100 µM
TGI (KM12 colon): > 100 µM
TGI (LOX IMVI melanoma): > 100 µM
TGI (M14 melanoma): > 43.2 µM
TGI (MALME-3M melanoma): > 100 µM
TGI (MCF7 breast): > 100 µM
TGI (MDA-MB-231 breast): > 100 µM
TGI (MDA-MB-435): > 100 µM
TGI (MDA-N): > 100 µM
TGI (MOLT-4 leukemia): > 100 µM
TGI (NCI-H226 lung): > 87.5 µM
TGI (NCI-H23 lung): > 100 µM
TGI (NCI-H460 lung): > 100 µM
TGI (NCI-H522 lung): > 71.1 µM
TGI (NCI/ADR-RES ovarian): > 100 µM
TGI (OVCAR-3 ovarian): > 100 µM
TGI (OVCAR-4 ovarian): > 100 µM
TGI (OVCAR-5 ovarian): > 100 µM
TGI (OVCAR-8 ovarian): > 100 µM
TGI (PC-3 prostate): > 100 µM
TGI (RPMI-8226 leukemia): > 100 µM
TGI (RXF 393 renal): > 100 µM
TGI (SF-268 CNS): > 100 µM
TGI (SF-295 CNS): > 100 µM
TGI (SF-539 CNS): > 100 µM
TGI (SK-MEL-2 melanoma): > 100 µM
TGI (SK-MEL-28 melanoma): > 100 µM
TGI (SK-MEL-5 melanoma): > 100 µM
TGI (SK-OV-3 ovarian): > 100 µM
TGI (SN12C renal): > 100 µM
TGI (SNB-19 CNS): > 100 µM
TGI (SNB-75 CNS): 71.2 µM
TGI (SR leukemia): > 25.4 µM
TGI (SW-620 colon): > 100 µM
TGI (T-47D breast): > 100 µM
TGI (TK-10 renal): > 100 µM
TGI (U251 CNS): > 100 µM
TGI (UACC-257 melanoma): > 100 µM
TGI (UACC-62 melanoma): > 100 µM
TGI (UO-31 renal): > 100 µM
